Target: T1, recombinant human sGC (rhsGCα1/rhsGCβ1) in intact Sf9 cells (Homo sapiens, UniProt Q02108+Q02153)
T1 construct: Thus, the complete hsGCα1 cDNA is under the control of the polyhedrin promotor (PHP); Thus, the complete hsGCβ1 cDNA is under the control of the polyhedrin promotor (PHP); expressed in transfected cells; host or cells: Sf9 insect cells coinfected with recombinant baculoviruses (pVL1393-derived)
T1 sequence (Q02108 1-690): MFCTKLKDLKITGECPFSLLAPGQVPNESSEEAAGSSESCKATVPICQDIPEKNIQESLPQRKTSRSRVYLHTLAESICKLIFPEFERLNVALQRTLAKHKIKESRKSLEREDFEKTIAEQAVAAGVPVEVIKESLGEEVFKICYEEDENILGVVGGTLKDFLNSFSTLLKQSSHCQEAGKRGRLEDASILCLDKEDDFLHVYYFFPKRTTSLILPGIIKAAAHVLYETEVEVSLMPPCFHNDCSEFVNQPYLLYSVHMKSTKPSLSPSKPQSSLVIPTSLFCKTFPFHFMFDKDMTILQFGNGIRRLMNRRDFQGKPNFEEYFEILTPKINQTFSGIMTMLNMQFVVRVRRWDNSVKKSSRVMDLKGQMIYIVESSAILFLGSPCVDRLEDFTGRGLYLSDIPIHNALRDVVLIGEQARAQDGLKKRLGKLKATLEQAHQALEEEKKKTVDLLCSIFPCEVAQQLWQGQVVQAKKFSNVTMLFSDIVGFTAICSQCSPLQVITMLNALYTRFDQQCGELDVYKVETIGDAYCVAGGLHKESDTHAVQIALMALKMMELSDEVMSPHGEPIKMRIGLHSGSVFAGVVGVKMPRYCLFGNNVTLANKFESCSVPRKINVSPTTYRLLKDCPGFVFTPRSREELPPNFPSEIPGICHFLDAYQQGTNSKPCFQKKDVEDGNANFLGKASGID
T1 sequence (Q02153 1-619): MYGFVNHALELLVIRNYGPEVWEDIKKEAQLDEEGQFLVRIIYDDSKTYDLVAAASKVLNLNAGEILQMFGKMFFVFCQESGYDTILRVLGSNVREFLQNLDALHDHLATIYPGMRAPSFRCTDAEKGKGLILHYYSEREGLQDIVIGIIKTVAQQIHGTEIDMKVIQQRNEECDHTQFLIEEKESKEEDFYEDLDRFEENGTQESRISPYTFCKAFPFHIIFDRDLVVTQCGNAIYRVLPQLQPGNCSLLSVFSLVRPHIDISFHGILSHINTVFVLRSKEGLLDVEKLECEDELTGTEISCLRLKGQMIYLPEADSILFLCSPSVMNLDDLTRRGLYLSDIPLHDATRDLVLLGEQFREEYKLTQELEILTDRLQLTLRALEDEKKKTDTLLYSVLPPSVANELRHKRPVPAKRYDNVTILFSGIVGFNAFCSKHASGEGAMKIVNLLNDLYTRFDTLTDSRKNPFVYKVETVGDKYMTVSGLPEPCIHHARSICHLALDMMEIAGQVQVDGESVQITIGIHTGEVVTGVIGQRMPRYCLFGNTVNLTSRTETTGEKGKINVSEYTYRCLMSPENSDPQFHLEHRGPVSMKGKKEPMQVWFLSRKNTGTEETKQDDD
Test: cGMP content (RIA) in intact Sf9 cells coexpressing rhsGCα1 and rhsGCβ1
Format: cell-based
Protocol: For the production of functional heterodimeric human sGC, rhsGCα1 and rhsGCβ1 were coexpressed in Sf9 cells with recombinant baculoviruses. For this, Sf9 monolayer cultures [2.5×10^6 cells/dish, Ø 90 mm; supplements see example 2] were coinfected with a M.O.I. (multiplicity of infection) of 2 pfu/cell of each recombinant baculovirus (hsGCα1 and hsGCβ1; both without GST-tag) and cultivated for 48 hours at 27° C. The basal as well as the NO-stimulated activity of the sGC in the cells was determined by measurement of the cGMP content in the cells in the presence of the phosphodiesterase inhibitor IBMX (3-isobutyl-1-methylxanthine).
For the determination of the cGMP content, the culture media was replaced by Krebs-Ringer-buffer (KRB; […]; 4.74 mM KCI; 2.54 mM CaCl2; 1.19 mM MgSO4; 1.19 mM KH2PO4; 25 mM NaHCO3; 10 mM HEPES; pH 7.4; 0.1% BSA) which, in addition, contained 1 mM IBMX. The cells were incubated for one hour at 27° C. Then the cells were washed with ice-cold KRP and harvested in 1 ml ice-cold ethanol (80%) with a cell scraper. The cells were homogenized by sonication [see Example 3] and centrifuged at 20,000×g for 20 minutes. The supernatant was dried in a speed-vac and the residue resuspended in 25 mM TEA, pH 7.8. The cGMP content was determined by means of RIA (Biotrend).

| SMILES | influence on basal cGMP levels (basal, without SNP) | effect on stimulation of rhsGC with SNP (simultaneous incubation with ODQ and SNP) | increase of cGMP content (10 μM YC-1 for 2 minutes) | increase of cGMP content (100 μM YC-1, compared with 10 μM YC-1) | cGMP levels compared to stimulation with SNP alone (YC-1 simultaneously with 100 μM SNP) |
| --- | --- | --- | --- | --- | --- |
| O=c1onc2cnc3ccccc3n12 [ODQ, 1H-[1,2,4]oxadiazolo[4,3,-a]chinoxalin-1-on] | did not have an influence | inhibited | – | – | – |
| OCc1ccc(-c2nn(Cc3ccccc3)c3ccccc23)o1 [YC-1, 3-(5′-hydroxymethyl-2′-furyl)-1-benzylindazol] | – | – | 3.4 fold | the same effect | doubled |

Source: patent publication US6849438B1, “Isolated and purified human soluble guanylyl cyclase α1/β1 (hsgcα1/β1)” (Vasopharm Biotech GmbH, priority 1998, dated 2005)
